Active and inactive are the calls of the source.
Tests used:
[1] = Luminescence Cell-Based Dose Confirmation HTS to Identify Inhibitors of Platelet Dense Granule Release. [Related pubchem assays: 1663 (Primary HTS), 1678 (Summary of Project)]; type: functional
[2] = molecular target: Luciferin 4-monooxygenase (Photinus pyralis, UniProt P08659); experiment: firefly luciferase enzyme inhibitors, dose response, biochemical, luminescence (AID 1891)
[3] = molecular target: FAD-linked sulfhydryl oxidase ALR (Homo sapiens, UniProt P55789); experiment: inhibitors of human ALR sulfhydryl oxidase, dose response, biochemical, H2O2 detection, luminescence, cherry-pick (AID 493248)
[4] = HEp-2 cell cytotoxicity, dose response, cytotoxicity control for RSV inhibitor project, HTS (AID 2410); type: functional; conditions: human respiratory syncytial virus
[5] = Luminescence Cell-Based Dose Confirmation HTS to Identify Activators of 5'UTR Stem-Loop Driven Alpha-Synuclein mRNA Translation in H4 Neuroglioblastoma Cells. [Related pubchem assays: 1829 (Project Summary), 1814 (Primary HTS)]; type: functional
[6] = Luminescence Cell-Based Dose Response HTS to Identify Activators of Luciferase Translation or Activity in H4 […] Cells. [Related pubchem assays: 1829 (Project Summary), 1814 (Primary HTS)]; type: functional
[7] = system: H4; experiment: Luminescence Cell-Based Dose Response HTS to Identify Activators of 5'UTR Stem-Loop Driven Prion Protein mRNA Translation in H4 Neuroglioblastoma Cells. [Related pubchem assays: 1829 (Project Summary), 1814 (Primary HTS)]; type: functional; conditions: Homo sapiens
[8] = molecular target: Cytochrome P450 2C19 (Homo sapiens, UniProt P33261); experiment: Cytochrome panel assay with activity outcomes. Panel member name: p450-cyp2c19 Compounds with AC50 equal or less than 10 uM are considered active; type: functional
[9] = molecular target: Cytochrome P450 3A4 (Homo sapiens, UniProt P08684);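 also: CYP3A4 tested as one member of a cytochrome P450 panel screen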
[10] = molecular target: Cytochrome P450 2D6 (Homo sapiens, UniProt P10635);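 also: CYP2D6 member of a cytochrome P450 panel assay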
[11] = molecular target: Cytochrome P450 2C9 (Homo sapiens, UniProt P11712)
[12] = molecular target: T1, Rac GTPase-activating protein 1 (Homo sapiens, UniProt Q9H0H5); experiment: MgcRacGAP GTPase-activating activity inhibitors, confirmation, biochemical, ADP Hunter fluorescence, primary and confirmatory (AID 624330); type: functional
T1 sequence (Q9H0H5 whole entry): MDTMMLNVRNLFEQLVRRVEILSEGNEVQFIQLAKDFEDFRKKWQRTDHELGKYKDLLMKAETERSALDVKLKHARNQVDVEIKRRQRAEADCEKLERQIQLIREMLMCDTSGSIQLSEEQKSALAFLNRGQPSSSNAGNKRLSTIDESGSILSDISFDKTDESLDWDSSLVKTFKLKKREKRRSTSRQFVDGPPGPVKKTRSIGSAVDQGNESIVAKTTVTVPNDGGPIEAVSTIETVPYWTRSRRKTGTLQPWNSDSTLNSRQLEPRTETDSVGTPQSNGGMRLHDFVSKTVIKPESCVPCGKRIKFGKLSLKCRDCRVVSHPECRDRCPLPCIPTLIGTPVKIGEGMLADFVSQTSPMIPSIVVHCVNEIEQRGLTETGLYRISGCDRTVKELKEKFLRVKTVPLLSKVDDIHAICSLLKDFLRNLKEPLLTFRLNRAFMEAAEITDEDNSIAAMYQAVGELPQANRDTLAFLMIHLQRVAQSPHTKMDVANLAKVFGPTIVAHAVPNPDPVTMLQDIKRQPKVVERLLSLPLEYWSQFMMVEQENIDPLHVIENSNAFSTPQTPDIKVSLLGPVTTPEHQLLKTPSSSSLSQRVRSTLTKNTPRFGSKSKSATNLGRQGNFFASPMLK

[13] = molecular target: T2, Cytochrome P450 1A2 (Homo sapiens, UniProt P05177);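 also: PubChem cytochrome P450 panel assay, CYP1A2 panel member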
T2 sequence (P05177 whole entry): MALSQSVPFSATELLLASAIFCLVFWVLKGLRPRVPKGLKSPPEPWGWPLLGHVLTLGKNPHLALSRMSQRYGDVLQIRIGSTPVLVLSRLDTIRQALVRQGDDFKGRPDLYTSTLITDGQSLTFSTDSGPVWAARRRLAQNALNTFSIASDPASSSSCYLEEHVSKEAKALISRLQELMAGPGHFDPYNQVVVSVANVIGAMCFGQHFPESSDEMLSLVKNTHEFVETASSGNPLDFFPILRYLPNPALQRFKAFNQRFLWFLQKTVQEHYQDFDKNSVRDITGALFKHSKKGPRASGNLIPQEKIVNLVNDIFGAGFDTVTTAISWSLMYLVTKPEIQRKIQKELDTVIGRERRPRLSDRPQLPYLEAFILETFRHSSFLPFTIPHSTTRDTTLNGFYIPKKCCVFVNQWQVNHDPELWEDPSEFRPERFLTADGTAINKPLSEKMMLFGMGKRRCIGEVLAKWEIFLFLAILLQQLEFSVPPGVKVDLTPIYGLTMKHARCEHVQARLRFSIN

Chain of FAD-linked sulfhydryl oxidase ALR (P55789 whole entry): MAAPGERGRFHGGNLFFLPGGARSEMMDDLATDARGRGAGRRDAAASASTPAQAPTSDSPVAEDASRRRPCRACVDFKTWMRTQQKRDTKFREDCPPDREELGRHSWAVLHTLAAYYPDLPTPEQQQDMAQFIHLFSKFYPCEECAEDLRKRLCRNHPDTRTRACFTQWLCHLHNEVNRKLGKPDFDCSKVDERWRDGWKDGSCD
Chain of Luciferin 4-monooxygenase (P08659 whole entry): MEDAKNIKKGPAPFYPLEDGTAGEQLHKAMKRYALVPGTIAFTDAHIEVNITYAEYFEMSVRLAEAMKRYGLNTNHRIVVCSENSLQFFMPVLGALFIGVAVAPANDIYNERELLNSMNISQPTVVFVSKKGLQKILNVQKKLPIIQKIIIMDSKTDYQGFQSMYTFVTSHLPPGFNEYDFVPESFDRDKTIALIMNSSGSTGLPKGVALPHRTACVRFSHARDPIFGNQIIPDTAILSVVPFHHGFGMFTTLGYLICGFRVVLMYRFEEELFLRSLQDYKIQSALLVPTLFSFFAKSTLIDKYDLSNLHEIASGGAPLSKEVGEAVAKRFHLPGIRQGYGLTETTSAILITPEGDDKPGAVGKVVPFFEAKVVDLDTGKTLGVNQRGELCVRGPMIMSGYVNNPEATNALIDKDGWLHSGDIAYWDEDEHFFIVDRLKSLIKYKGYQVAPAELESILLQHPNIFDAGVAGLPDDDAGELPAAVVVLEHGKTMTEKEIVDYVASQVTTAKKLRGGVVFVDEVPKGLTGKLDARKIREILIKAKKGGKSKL
Chain of Cytochrome P450 2C9 (P11712 whole entry): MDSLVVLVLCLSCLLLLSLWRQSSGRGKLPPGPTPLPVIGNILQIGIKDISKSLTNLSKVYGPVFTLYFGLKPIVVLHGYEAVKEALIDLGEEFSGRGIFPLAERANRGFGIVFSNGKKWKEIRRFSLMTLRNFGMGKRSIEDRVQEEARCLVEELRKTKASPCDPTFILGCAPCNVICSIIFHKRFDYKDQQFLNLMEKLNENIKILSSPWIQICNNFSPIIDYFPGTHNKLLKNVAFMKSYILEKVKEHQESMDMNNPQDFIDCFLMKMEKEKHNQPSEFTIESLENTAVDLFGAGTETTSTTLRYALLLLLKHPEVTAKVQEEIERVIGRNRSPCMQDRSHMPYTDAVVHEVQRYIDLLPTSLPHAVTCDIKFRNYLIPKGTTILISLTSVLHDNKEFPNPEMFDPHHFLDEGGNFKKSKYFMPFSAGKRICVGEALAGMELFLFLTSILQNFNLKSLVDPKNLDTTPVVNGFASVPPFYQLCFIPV
Chain of Cytochrome P450 2D6 (P10635 whole entry): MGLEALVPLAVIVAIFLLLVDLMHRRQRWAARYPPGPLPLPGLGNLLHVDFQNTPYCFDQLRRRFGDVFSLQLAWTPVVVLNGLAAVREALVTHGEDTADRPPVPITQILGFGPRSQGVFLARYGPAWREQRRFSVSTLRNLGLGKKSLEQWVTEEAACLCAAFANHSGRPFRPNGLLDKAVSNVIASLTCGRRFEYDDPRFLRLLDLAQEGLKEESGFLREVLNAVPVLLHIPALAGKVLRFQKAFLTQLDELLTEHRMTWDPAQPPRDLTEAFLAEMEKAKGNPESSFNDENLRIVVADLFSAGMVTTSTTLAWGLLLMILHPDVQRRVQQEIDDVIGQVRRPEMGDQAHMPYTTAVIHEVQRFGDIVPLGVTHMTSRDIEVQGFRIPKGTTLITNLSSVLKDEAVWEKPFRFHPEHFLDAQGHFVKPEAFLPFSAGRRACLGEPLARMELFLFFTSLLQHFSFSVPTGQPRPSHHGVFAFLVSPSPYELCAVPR
Chain of Cytochrome P450 2C19 (P33261 whole entry): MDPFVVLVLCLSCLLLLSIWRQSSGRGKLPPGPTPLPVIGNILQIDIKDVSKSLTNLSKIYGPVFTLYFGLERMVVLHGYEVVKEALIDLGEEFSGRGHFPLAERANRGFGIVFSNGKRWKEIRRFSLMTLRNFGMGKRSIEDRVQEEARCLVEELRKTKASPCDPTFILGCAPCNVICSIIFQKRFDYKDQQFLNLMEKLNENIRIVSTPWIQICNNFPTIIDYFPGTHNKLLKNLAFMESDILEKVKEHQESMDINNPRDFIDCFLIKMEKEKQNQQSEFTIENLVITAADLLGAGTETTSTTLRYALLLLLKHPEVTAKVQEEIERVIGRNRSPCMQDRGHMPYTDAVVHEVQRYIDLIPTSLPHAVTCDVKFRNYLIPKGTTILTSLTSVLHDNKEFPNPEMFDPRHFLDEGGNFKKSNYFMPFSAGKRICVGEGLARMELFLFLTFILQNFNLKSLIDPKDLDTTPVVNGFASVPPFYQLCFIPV
Chain of Cytochrome P450 3A4 (P08684 whole entry): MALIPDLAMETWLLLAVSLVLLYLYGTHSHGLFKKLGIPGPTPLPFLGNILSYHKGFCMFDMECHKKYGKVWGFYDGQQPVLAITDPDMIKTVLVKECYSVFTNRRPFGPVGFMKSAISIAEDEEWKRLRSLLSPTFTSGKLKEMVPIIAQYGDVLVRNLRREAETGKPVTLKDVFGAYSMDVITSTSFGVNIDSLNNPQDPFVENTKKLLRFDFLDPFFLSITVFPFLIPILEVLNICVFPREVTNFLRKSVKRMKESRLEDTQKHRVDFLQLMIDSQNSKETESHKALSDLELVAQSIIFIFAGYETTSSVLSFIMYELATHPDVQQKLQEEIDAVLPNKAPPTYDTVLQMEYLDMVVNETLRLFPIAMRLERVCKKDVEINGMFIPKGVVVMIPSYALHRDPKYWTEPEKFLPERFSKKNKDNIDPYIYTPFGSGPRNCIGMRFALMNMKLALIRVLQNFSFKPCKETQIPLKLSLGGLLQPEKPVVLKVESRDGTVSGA

CCOC(=O)C(CC)n1cnc2c(nnn2-c2ccc(F)cc2)c1=O (configuration not stated)
EC50 [1]: > 112 µM (not active)
EC50 [2]: > 112 µM (not active)

O=C(Nc1ccc(Nc2ccccc2)cc1)c1ccco1
AC50 [3]: 5.94 µM (active)
CC50 [4]: 45.1 µM (active)

COc1ccc2c(c1)C(=O)CC(c1ccc3c(c1)OCCO3)O2 (configuration not stated)
EC50 [5]: 7.88 µM (active)
EC50 [6]: 42 µM (active)
EC50 [7]: 13.9 µM (active)

Oc1c2nc3ccccc3c-2ncn1CCC1=CCCCC1
EC50 [5]: 43.3 µM (active)
EC50 [6]: 46.6 µM (active)
EC50 [7]: 1.72 µM (active)

COc1ccc(-n2c(=O)c(-c3ccccc3)nc3cncnc32)cc1
AC50 ([8]; read-out: AC50): 39.8 µM (inconclusive)
AC50 [9]: 15.8 µM (inconclusive)
AC50 [10]: 25.1 µM (inconclusive)

COC(=O)C1CC1C(NC(=O)[C@H]1CCCCN1)c1ccccc1 (some centres not stated)
AC50 [11]: 20 µM (inconclusive)
AC50 [10]: 20 µM (inconclusive)

O=C(CN1CCCCCC1)Nc1nc2ccccc2s1
IC50 [12]: 173 µM (active)

C[C@H](CN(C)C)C(O)(c1ccccc1)c1ccccc1
AC50 [8]: inconclusive
AC50 [10]: 3.98 µM (inconclusive)

Cn1c(C(=O)N2COCC2(C)C)cc2c(=O)n3ccccc3nc21
EC50 [5]: 17.2 µM (active)
AC50 [11]: 5.01 µM (inconclusive)
EC50 [6]: 12 µM (active)
EC50 [7]: 61.7 µM (active)

CCN(CCNC(=O)C1CCN(S(=O)(=O)c2cccc3nsnc23)CC1)c1ccccc1
AC50 [3]: 4.69 µM (active)

CC(Cc1ccccc1)C(=O)NCc1ccccn1 (configuration not stated)
AC50 [10]: 39.8 µM (inconclusive)

CCN(C(=O)COC(=O)/C=C/c1cnc2ccccc2n1)c1ccccc1
EC50 [5]: > 120 µM (not active)
EC50 [6]: 0.49 µM (active)
EC50 [7]: > 120 µM (not active)

C=CCn1c(S)nnc1C(C)NC(=O)c1cccc(C)c1 (configuration not stated)
AC50 [3]: 4.01 µM (active)

Cc1cnc(NC(=O)CN2CCN(c3ccccc3F)CC2)s1
IC50 [12]: 150 µM (active)

CC1CCC(NC(=O)c2cc3c(=O)n(C)c4ccccc4c3n2C)CC1 (configuration not stated)
EC50 [5]: 7.84 µM (active)
EC50 [6]: 14.3 µM (active)
EC50 [7]: > 120 µM (not active)

CCCSC1=C(C#N)C(c2cccnc2)C(C(=O)OCC)=C(c2ccccc2)N1 (configuration not stated)
AC50 [10]: 39.8 µM (inconclusive)

O=C(Cn1c(=S)nc2ccccn21)N1CCc2ccccc2C1
EC50 [5]: 5.67 µM (active)
EC50 [6]: 30.2 µM (active)
EC50 [7]: 10.3 µM (active)

CSc1nnc2c(n1)OC(C)N(C(=O)c1ccccc1)c1ccccc1-2 (configuration not stated)
AC50 [13]: 10 µM (inconclusive)
EC50 [5]: 15.4 µM (active)
AC50 [11]: 31.6 µM (inconclusive)
EC50 [6]: > 120 µM (not active)
EC50 [7]: > 120 µM (not active)

CCOc1cc(N2CCOCC2)c(OCC)cc1NCC(=O)N1CCN(Cc2ccccc2)CC1
IC50 [12]: 64.2 µM (active)

O=C(O)c1nc2ccccc2nc1C(=O)O
EC50 [5]: 11.1 µM (active)
EC50 [6]: 25.5 µM (active)
EC50 [7]: > 120 µM (not active)

CC12CCC(C(=O)NNc3ccccc3)(C(=O)C1=O)C2(C)C (configuration not stated)
EC50 [1]: > 112 µM (not active)
EC50 [2]: > 112 µM (not active)

CCN1CCN(CC(=O)N/N=C/c2cc(Br)cs2)CC1
IC50 [12]: 94.2 µM (active)

Cc1ccc(Oc2nc3ccccn3c(=O)c2/C=C(\C#N)C(=O)NC2CCS(=O)(=O)C2)c(C)c1 (configuration not stated)
EC50 [1]: 6.03 µM (active)
EC50 [2]: > 112 µM (not active)

Cc1cccc(NC(=O)CSc2nc(COc3ccccc3)nc3ccccc23)c1C
AC50 [13]: 12.6 µM (inconclusive)
AC50 [10]: 12.6 µM (inconclusive)

Source: ChEMBL document CHEMBL1201862, “PubChem BioAssay data set” (2004)
